Experimental data reported in US20260199320A1, “COMBINATION THERAPIES FOR TREATING CANCER” (INSTITUTE FOR CANCER RESEARCH D/B/A THE RESEARCH INSTITUTE …, priority 2022, published 2026).
Where two headings read alike, the source gives them in different places.

Tested on: HEP 3B Hepatocellular Carcinoma
Experiment: Cell viability by CellTiter Blue assay, CalcuSyn 2.0 combination analysis, HEP 3B
Conditions: for IC50: read-out: Dm; for Dose Len: Len alone; for Dose Lon: Lon alone; for Dose Sor: Sor alone
Method: Cell viability was analyzed by CellTiter Blue assay. ED, effective dose. The data analysis was performed using CalcuSyn 2.0 software. […] CI 0.85-0.9: slight synergism; CI 0.7-0.85: moderate synergism; CI 0.3-0.7: synergism; CI 0.1-0.3: strong synergism; CI<0.1: very strong synergism.

COc1cc2nccc(Oc3ccc(NC(=O)NC4CC4)c(Cl)c3)c2cc1C(N)=O [Len, Lenvatinib]
Effect (Dose 1.0 uM): 0.3487 | Effect (Dose 2.0 uM): 0.5908 | Effect (Dose 4.0 uM): 0.6835 | Effect (Dose 6.0 uM): 0.706 | Effect (Dose 8.0 uM): 0.7316 | Effect (Dose 1.0E−4 uM): 1.0E−4 | IC50 (Homo sapiens, Hep3B): 1.98 µM | Dose Len (Fa 0.05): 0.08241 µM | Dose Len (Fa 0.1): 0.1847 µM | Dose Len (Fa 0.15): 0.3044 µM | Dose Len (Fa 0.2): 0.4435 µM | Dose Len (Fa 0.25): 0.605 µM | Dose Len (Fa 0.3): 0.7937 µM | Dose Len (Fa 0.35): 1.016 µM | Dose Len (Fa 0.4): 1.279 µM | Dose Len (Fa 0.45): 1.596 µM | Dose Len (Fa 0.48908 (experimental point)): 1.891 µM | Dose Len (Fa 0.5): 1.982 µM | Dose Len (Fa 0.55): 2.462 µM | Dose Len (Fa 0.6): 3.071 µM | Dose Len (Fa 0.65): 3.868 µM | Dose Len (Fa 0.66115 (experimental point)): 4.08 µM | Dose Len (Fa 0.7): 4.949 µM | Dose Len (Fa 0.75): 6.493 µM | Dose Len (Fa 0.76439 (experimental point)): 7.066 µM | Dose Len (Fa 0.79346 (experimental point)): 8.481 µM | Dose Len (Fa 0.8): 8.859 µM | Dose Len (Fa 0.83864 (experimental point)): 11.7543 µM | Dose Len (Fa 0.85): 12.9048 µM | Dose Len (Fa 0.9): 21.2693 µM | Dose Len (Fa 0.95): 47.6701 µM | Dose Len (Fa 0.97): 84.6505 µM | Dose Len (Fa 1.0E−4 (experimental point)): 9.48e-05 µM

NC(=O)N1CCC(CC(=O)N2CCC([C@H]3c4ncc(Br)cc4CCc4cc(Cl)cc(Br)c43)CC2)CC1 [Lon, Lonafarnib]
Effect (Dose 100.0 nM): 0.2171 | Effect (Dose 200.0 nM): 0.2792 | Effect (Dose 400.0 nM): 0.3124 | Effect (Dose 600.0 nM): 0.3247 | Effect (Dose 800.0 nM): 0.3747 | Effect (Dose 1.0E−4 nM): 1.0E−4 | IC50 (Homo sapiens, Hep3B): 1.56 µM | Dose Lon (Fa 0.05): 7.632 nM | Dose Lon (Fa 0.1): 29.4334 nM | Dose Lon (Fa 0.15): 67.8864 nM | Dose Lon (Fa 0.2): 127.362 nM | Dose Lon (Fa 0.25): 214.159 nM | Dose Lon (Fa 0.3): 337.210 nM | Dose Lon (Fa 0.34468 (experimental point of LonSor)): 488.163 nM | Dose Lon (Fa 0.35): 509.303 nM | Dose Lon (Fa 0.37774 (experimental point of LonSor)): 632.458 nM | Dose Lon (Fa 0.4): 749.086 nM | Dose Lon (Fa 0.45): 1084.42 nM | Dose Lon (Fa 0.48908 (experimental point of LonLen)): 1439.98 nM | Dose Lon (Fa 0.5): 1558.23 nM | Dose Lon (Fa 0.55): 2239.05 nM | Dose Lon (Fa 0.6): 3241.39 nM | Dose Lon (Fa 0.60837 (experimental point of LonSor)): 3452.95 nM | Dose Lon (Fa 0.65): 4767.46 nM | Dose Lon (Fa 0.66115 (experimental point of LonLen)): 5212.31 nM | Dose Lon (Fa 0.7): 7200.51 nM | Dose Lon (Fa 0.75): 11337.8 nM | Dose Lon (Fa 0.76439 (experimental point of LonLen)): 13060.1 nM | Dose Lon (Fa 0.79346 (experimental point of LonLen)): 17723.1 nM | Dose Lon (Fa 0.8): 19064.4 nM | Dose Lon (Fa 0.83864 (experimental point of LonLen)): 30595.1 nM | Dose Lon (Fa 0.84428 (experimental point of LonSor)): 33023.4 nM | Dose Lon (Fa 0.85): 35766.8 nM | Dose Lon (Fa 0.9): 82494.1 nM | Dose Lon (Fa 0.93635 (experimental point of LonSor)): 200408. nM | Dose Lon (Fa 0.95): 318153. nM | Dose Lon (Fa 0.97): 831265. nM | Dose Lon (Fa 1.0E−4 (experimental point)): 9.27e-05 nM

CNC(=O)c1cc(Oc2ccc(NC(=O)Nc3ccc(Cl)c(C(F)(F)F)c3)cc2)ccn1 [Sor, Sorafenib]
Effect (Dose 1.0 uM): 0.05824 | Effect (Dose 2.0 uM): 0.1667 | Effect (Dose 4.0 uM): 0.4078 | Effect (Dose 6.0 uM): 0.6762 | Effect (Dose 8.0 uM): 0.8681 | Effect (Dose 1.0E−4 uM): 1.0E−4 | Dose Sor (Fa 0.05): 0.1769 µM | Dose Sor (Fa 0.1): 0.4116 µM | Dose Sor (Fa 0.15): 0.6944 µM | Dose Sor (Fa 0.2): 1.029 µM | Dose Sor (Fa 0.25): 1.425 µM | Dose Sor (Fa 0.3): 1.893 µM | Dose Sor (Fa 0.34468 (experimental point)): 2.386 µM | Dose Sor (Fa 0.35): 2.451 µM | Dose Sor (Fa 0.37774 (experimental point)): 2.806 µM | Dose Sor (Fa 0.4): 3.12 µM | Dose Sor (Fa 0.45): 3.933 µM | Dose Sor (Fa 0.5): 4.934 µM | Dose Sor (Fa 0.55): 6.19 µM | Dose Sor (Fa 0.6): 7.803 µM | Dose Sor (Fa 0.60837 (experimental point)): 8.118 µM | Dose Sor (Fa 0.65): 9.934 µM | Dose Sor (Fa 0.7): 12.8580 µM | Dose Sor (Fa 0.75): 17.0827 µM | Dose Sor (Fa 0.8): 23.6479 µM | Dose Sor (Fa 0.84428 (experimental point)): 33.3507 µM | Dose Sor (Fa 0.85): 35.0585 µM | Dose Sor (Fa 0.9): 59.1449 µM | Dose Sor (Fa 0.93635 (experimental point)): 103.075 µM | Dose Sor (Fa 0.95): 137.645 µM | Dose Sor (Fa 0.97): 251.060 µM | Dose Sor (Fa 1.0E−4 (experimental point)): 0.000148 µM | IC50 (CalcuSyn median-effect fit, single drug dosed in uM): 4.93 µM
